Assay results published in patent US5869512A, “Azole compounds with antimycotic activity for human and veterinary use” (Zambon Group S.p.A, priority 1996, dated 1999).
Values after ≈ are worked out from the molar mass of the structure shown. Where two headings read alike, the source gives them in different places.

Assays:
C. albicans 1040 = assay: In vitro growth inhibition, macromethod of scalar broth dilution (YNB); format: cell-based, Candida albicans
Source text: (§1) A) The activity inhibiting the growth of mycetes has been evaluated by the macromethods of the scalar broth dilution in geometrical progression (M. R. McGinnis and M. G. Rinaldi, "Antimycotic drugs: mechanisms of action, drug resistance, susceptibility testing and assay of activity in biological fluids", in Antibiotic in Laboratory Medicine, Ed. V. Lorian, Baltimore 1991).
(§2) As growing medium Yeast Nitrogen Base broth (YNB) and Sabouraud Dextrose broth (SDB) were employed for yeasts and moulds respectively.
(§3) Fluconazole has been taken as reference compound.

T. mentagrophytes = assay: In vitro growth inhibition, macromethod of scalar broth dilution (SDB); format: cell-based, Trichophyton mentagrophytes; settings: for MIC: Trichophyton mentagrophytes, 168 h, read-out: MIC (minimum inhibiting concentration)
Source text: as §1, §2, §3

Candida albicans 1040 = assay: In vivo oral antimycotic effectiveness, systemic candidiasis; parameters: species or system mice (Albino Charles River, CD1 strain); settings: mice, oral at 0, 4, 24, 48 hours after i.v. infection; for PD50 (medium protective dose) at the 14th day: 20160 min; for ED50: Candida albicans, 1040, in Mus musculus, po, 336 h, read-out: PD50 (medium protective dose) at the 14th day
Procedure: (§4) Albino Charles River mice (CD1 strain) weighing from 23 to 25 g, normally feed with a standard diet and water ad libitum were employed.
(§5) Each animal has been intravenously (for systemic candidiasis, crytpococcosis, aspergillosis), intracranially (for intracranial cryptococcosis) or nasally (for pulmonary aspergillosis) treated with a suspension (0.2 ml containing 2.5×10^7 cells/ml) of the due microorganism in physiological. Right after the injection and after 4, 24 and 48 hours the animals has been orally administered (in 2% Arabic gum) geometrically progressive increasing doses of the compound under test. An infected group has been used as control.
(§6) The mortality monitoring of the mice has been prolonged up to 14 days. The medium protective dose (PD50) has been calculated by the probits analysis (L. Lison--"Statistica applicata alla biologia sperimentale. La programmazione dell'esperimento e l'analisi dei risultati"--Casa Editrice Ambrosiana, 1961) on the basis of the number of animals survived at each concentration.
(§7) Fluconazole and Itraconazole were taken as reference compounds.

C. neoformans = assay: In vitro growth inhibition, macromethod of scalar broth dilution (YNB); format: cell-based, Cryptococcus neoformans
Source text: as §1, §2, §3

A. fumigatus [1] = assay: In vitro growth inhibition, macromethod of scalar broth dilution (SDB); format: cell-based, Aspergillus fumigatus; settings: for MIC: Aspergillus fumigatus, 168 h, read-out: MIC (minimum inhibiting concentration)
Source text: as §1, §2, §3

[2] = test system: Cryptococcus neoformans 3443; assay: In vivo oral antimycotic effectiveness, systemic cryptococcosis; parameters: species or system mice (Albino Charles River, CD1 strain); settings: 336 h, mice, oral at 0, 4, 24, 48 hours after i.v. infection, read-out: PD50 (medium protective dose) at the 14th day
Procedure: as §4, §5, §6, §7

[3] = test system: Cryptococcus neoformans ISM; assay: In vivo oral antimycotic effectiveness, intracranial cryptococcosis; parameters: species or system mice (Albino Charles River, CD1 strain); settings: 336 h, mice, oral at 0, 4, 24, 48 hours after intracranial infection, read-out: PD50 (medium protective dose) at the 14th day
Procedure: as §4, §5, §6, §7

[4] = test system: Aspergillus fumigatus MOL-4; assay: In vivo oral antimycotic effectiveness, pulmonary aspergillosis; parameters: species or system mice (Albino Charles River, CD1 strain); settings: MOL4, 336 h, mice, oral at 0, 4, 24, 48 hours after nasal infection, read-out: PD50 (medium protective dose) at the 14th day
Procedure: as §4, §5, §6, §7

[5] = test system: Aspergillus fumigatus MOL-4; assay: In vivo oral antimycotic effectiveness, systemic aspergillosis; parameters: species or system mice (Albino Charles River, CD1 strain); settings: MOL4, 336 h, mice, oral at 0, 4, 24, 48 hours after i.v. infection, read-out: PD50 (medium protective dose) at the 14th day
Procedure: as §4, §5, §6, §7

F. proliferatum = assay: In vitro antimycotic activity, dilution in agar (mycetes); format: cell-based, Fusarium proliferatum; settings: casitone agar pH 7, 32° C., 1-10 days
Procedure: (§8) B) The activity inhibiting the growth of yeasts and filamentosous fungi has been evaluated by the method of the dilution in agar. The minimum inhibiting concentration at 50% (MIC50) was measured by incorporating into the growing medium decreasing concentrations of the tested compounds thus yielding scalar concentration on basis 2, from […].
(§9) As growing medium casitone agar buffered at pH=7 (casitone 9 g, glucose 20 g, sodium citrate 10 g, leaven extract 5 g, agar 18 g, potassium biphosphate 0.54 g, sodium biphosphate 3.34 g, distilled water 1,000 ml) was employed.
(§10) For evaluating the activity against the mycetes the growing mediums containing the scalar concentrations of the compounds to be tested were inoculated with 1 μl of a suspension of 5×10^5 of spores/ml (conides or endospores) obtained from duly sporulated coltures. The inoculated growing mediums were incubated at 32° C. and the measurements were effected after 1, 2, 3, 5, 7 and 10 days.
(§11) Fluconazole, Itraconazole and Amphotericin B have been taken as reference compounds.

A. terreus = assay: as above; format: cell-based, Aspergillus terreus; settings: casitone agar pH 7, 32° C., 1-10 days
Procedure: as §8, §9, §10, §11

A. alliaceus = assay: as above; format: cell-based, Aspergillus alliaceus; settings: casitone agar pH 7, 32° C., 1-10 days
Procedure: as §8, §9, §10, §11

A. fumigatus [6] = assay: as above; format: cell-based, Aspergillus fumigatus; settings: casitone agar pH 7, 32° C., 1-10 days
Procedure: as §8, §9, §10, §11

A. niger = assay: as above; format: cell-based, Aspergillus niger; settings: casitone agar pH 7, 32° C., 1-10 days
Procedure: as §8, §9, §10, §11

R. pusillus = assay: as above; format: cell-based, Rhyzomucor pusillus; settings: casitone agar pH 7, 32° C., 1-10 days
Procedure: as §8, §9, §10, §11

F. verticilloides = assay: as above; format: cell-based, Fusarium verticilloides; settings: casitone agar pH 7, 32° C., 1-10 days
Procedure: as §8, §9, §10, §11

Pseudoallescheria = assay: as above; format: cell-based; settings: casitone agar pH 7, 32° C., 1-10 days
Procedure: as §8, §9, §10, §11

Trichoderma = assay: as above; format: cell-based; settings: casitone agar pH 7, 32° C., 1-10 days
Procedure: as §8, §9, §10, §11

Acremonium = assay: as above; format: cell-based; settings: casitone agar pH 7, 32° C., 1-10 days
Procedure: as §8, §9, §10, §11

Mucor = assay: as above; format: cell-based; settings: casitone agar pH 7, 32° C., 1-10 days
Procedure: as §8, §9, §10, §11

A. flavusalis = assay: as above; format: cell-based, Aspergillus flavus; settings: casitone agar pH 7, 32° C., 1-10 days
Procedure: as §8, §9, §10, §11

A. corymbifera = assay: as above; format: cell-based, Absidia corymbifera; settings: casitone agar pH 7, 32° C., 1-10 days
Procedure: as §8, §9, §10, §11

[7] = C. albicans 1040, YNB, 35° C., 48 hours, 2A, 3A, 3B tested as nitrates
[8] = T. mentagrophytes, SDB, 28° C., 7 days, 2A, 3A, 3B tested as nitrates
[9] = C. neoformans, YNB, 35° C., 48 hours, 2A, 3A, 3B tested as nitrates
[10] = A. fumigatus, SDB, 28° C., 7 days, 2A, 3A, 3B tested as nitrates
[11] = Cryptococcus neoformans, 48 h, C. neoformans, YNB, 35° C., 48 hours, 2A, 3A, 3B tested as nitrates, read-out: IC50
[12] = Candida albicans, 1040, 48 h, C. albicans 1040, YNB, 35° C., 48 hours, 2A, 3A, 3B tested as nitrates, read-out: IC50

SMILES | ED50 [2] [mg/kg] | ED50 (Candida albicans 1040) [mg/kg] | ED50 [3] [mg/kg] | ED50 [4] [mg/kg] | MIC (T. mentagrophytes; [8]) [µg/mL] | IC50 (C. neoformans; [11]) [µg/mL] | ED50 [5] [mg/kg] | MIC (A. fumigatus [1]; [10]) [µg/mL] | also measured
CC(C)(COC(F)(F)C(F)F)C(O)(Cn1cncn1)c1ccc(F)cc1F (single isomer, unassigned; (-)) [Compound 1A, (-) 2-(2,4-difluorophenyl)-4-(1,1,2-tetrafluoroethoxy)-3,3-dimethyl-1-(1H-1,2,4-triazol-1-yl)-2-butanol] |  |  |  |  |  |  |  |  | IC50 (C. albicans 1040; [7]): 0.0078 µg/mL (≈ 0.0196 µM); MIC (minimum inhibiting concentration) (T. mentagrophytes; [8]): 0.125 µg/mL (≈ 0.315 µM); PD50 (medium protective dose) at the 14th day (Candida albicans 1040): 0.64 mg/kg/os; IC50 (C. neoformans; [9]): 0.0078 µg/mL (≈ 0.0196 µM); MIC (minimum inhibiting concentration) (A. fumigatus [1]; [10]): 4 µg/mL (≈ 10.1 µM)
OC(Cn1cncn1)(Cn1cncn1)c1ccc(F)cc1F [Fluconazole, reference compound] | 63.2 | 0.61 | 22.3 | > 100 |  |  |  |  | IC50 (C. albicans 1040; Candida albicans, 1040, 48 h): 0.5 µg/mL (≈ 1.63 µM); MIC (T. mentagrophytes): 16 µg/mL (≈ 52.2 µM); IC50 (C. neoformans; Cryptococcus neoformans, 48 h): 2 µg/mL (≈ 6.53 µM); MIC (A. fumigatus [1]): > 128 µg/mL
C[C@@H](COC(F)(F)C(F)F)[C@](O)(Cn1cncn1)c1ccc(F)cc1F [Compound 2A, (-) (2R,3S)-2-(2,4-difluorophenyl)-4-(1,1,2,2-tetrafluoroethoxy)-3-methyl-1-(1H-1,2,4-triazol-1-yl)-2-butanol] | 8.84 | 0.32 | 14.6 | 9.3 | 0.25 (≈ 0.652 µM) | 0.0312 (≈ 0.0814 µM) | 3.5 | 8 (≈ 20.9 µM) | 
C[C@@H](COC(F)(F)C(F)F)[C@](O)(Cn1cncn1)c1ccc(Cl)cc1Cl [Compound 3A, (-) (2R,3S)-2-(2,4-dichlorophenyl)-4-(1,1,2,2-tetrafluoroethoxy)-3-methyl-1-(1H-1,2,4-triazol-1-yl)-2-butanol] | 5.48 | 0.38 | 12.5 | 6.9 | 0.0625 (≈ 0.15 µM) | 0.0078 (≈ 0.0187 µM) | 4.5 | 2 (≈ 4.81 µM) | IC50 (C. albicans 1040; [12]): 0.0078 µg/mL (≈ 0.0187 µM)
C[C@@H]1[C@H](O)[C@@H](C)/C=C/C=C/C=C/C=C/C=C/C=C/C=C/[C@H](O[C@@H]2O[C@H](C)[C@@H](O)[C@H](N)[C@@H]2O)C[C@@H]2O[C@](O)(C[C@@H](O)C[C@@H](O)[C@H](O)CC[C@@H](O)C[C@@H](O)CC(=O)O[C@H]1C)C[C@H](O)[C@H]2C(=O)O [Amphotericin B] |  |  |  |  |  |  |  |  | MIC50 (F. proliferatum): 1 µg/mL (≈ 1.08 µM); MIC50 (A. terreus): 0.25 µg/mL (≈ 0.271 µM); MIC50 (A. alliaceus): 16 µg/mL (≈ 17.3 µM); MIC50 (A. fumigatus [6]): 0.25 µg/mL (≈ 0.271 µM); MIC50 (A. niger): 0.12 µg/mL (≈ 0.13 µM); MIC50 (R. pusillus): 0.06 µg/mL (≈ 0.0649 µM); MIC50 (F. verticilloides): 2 µg/mL (≈ 2.16 µM); MIC50 (Pseudoallescheria): 8 µg/mL (≈ 8.66 µM); MIC50 (Trichoderma): 1 µg/mL (≈ 1.08 µM); MIC50 (Acremonium): 16 µg/mL (≈ 17.3 µM); MIC50 (Mucor): 0.03 µg/mL (≈ 0.0325 µM); MIC50 (A. flavusalis): 0.25 µg/mL (≈ 0.271 µM); MIC50 (A. corymbifera): 0.06 µg/mL (≈ 0.0649 µM)
CCC(C)n1ncn(-c2ccc(N3CCN(c4ccc(OCC5COC(Cn6cncn6)(c6ccc(Cl)cc6Cl)O5)cc4)CC3)cc2)c1=O (stereo not shown) [Itraconazole, reference compound] | > 50 | 1.74 | > 25 | > 20 |  |  | 10.2 |  | 
C[C@H](COC(F)(F)C(F)F)[C@@](O)(Cn1cncn1)c1ccc(Cl)cc1Cl [Compound 3B, (+) (2S,3R)-2-(2,4-dichlorophenyl)-4-(1,1,2,2-tetrafluoroethoxy)-3-methyl-1-(1H-1,2,4-triazol-1-yl)-2-butanol] |  | 4.57 |  |  | 16 (≈ 38.4 µM) | 1 (≈ 2.4 µM) |  | > 128 | IC50 (C. albicans 1040; [12]): 0.25 µg/mL (≈ 0.601 µM)
CC(C)(COC(F)(F)C(F)F)C(O)(Cn1cncn1)c1ccc(F)cc1F (single isomer, unassigned; (+)) [Compound 1B] |  |  |  |  |  |  |  |  | IC50 (C. albicans 1040; [7]): 1 µg/mL (≈ 2.52 µM); MIC (minimum inhibiting concentration) (T. mentagrophytes; [8]): 32 µg/mL (≈ 80.5 µM); PD50 (medium protective dose) at the 14th day (Candida albicans 1040): > 2 mg/kg/os; IC50 (C. neoformans; [9]): 1 µg/mL (≈ 2.52 µM); MIC (minimum inhibiting concentration) (A. fumigatus [1]; [10]): > 128 µg/mL
